Measured values reported in the METLIN SMRT retention time set (Domingo-Almenara et al. 2019).

Assay: gradient 5% acetonitrile 3 min, to 50% in 2 min, to 85% in 15 min, held 3 min, 100 µL/min
Details: column: Zorbax Extend-C18 2.1 x 50 mm; eluents: water / acetonitrile, 0.1% formic acid
Procedure, shortened: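 The mobile phases were water and acetonitrile, each with 0.1% formic acid, pumped at 100 μL/min through a Zorbax Extend-C18 column (2.1 × 50 mm, 1.8 μm). Pure standards were injected as mixtures of ~100 molecules and detected by a quadrupole time-of-flight mass spectrometer in positive and negative ionization mode. Retention time came from computationally picked adduct peaks, each inspected by hand.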

| Compound | RP-LC retention time [s] |
| --- | --- |
| O=C(NC1CCCCC1)c1cccc2c1CCN2C(=O)C1CC1 | 832 |
| COC1CN(c2ccc(C)cc2)C12CCNCC2 (stereo not drawn) | 622 |
| CC1CCCN(CCCNC(=O)c2nnc(-c3ccc(S(=O)(=O)N4CCOCC4)cc3)o2)C1 (stereo not drawn) | 634 |
| COc1ccc(S(=O)(=O)Nc2ccc3c(c2)CCC(=O)N3CC(C)C)cc1 | 832 |
| CCOC(=O)c1cc(S(=O)(=O)N2CCCC2C(=O)Nc2ccc(C)cc2Br)cn1C (stereo not drawn) | 1060 |
| CCOc1ccc(CN(C(=O)Cc2coc3ccc(CC)cc23)C2CCS(=O)(=O)C2)cc1 (stereo not drawn) | 1050 |
| O=C(Nc1cccnc1)C1CCCN(c2nnc3ccc(Cl)cn23)C1 (stereo not drawn) | 567 |
| O=C1CC(c2noc(-c3ccc(Cl)cc3)n2)CN1c1ccc(F)cc1 (stereo not drawn) | 1030 |
| O=C(C1CC1)N1CCc2sc(S(=O)(=O)Nc3ccc(Cl)cc3F)cc2C1 | 887 |
| Cc1noc(C2(NC(=O)Cc3ccc(F)cc3)CCCCC2)n1 | 837 |
| CCCNC(=O)C1CCN(c2ccc(SCC(=O)NCc3ccc(C)cc3)nn2)CC1 | 656 |
| C=CCNC(=O)c1cn(-c2ccc(-c3nc(CC)no3)cn2)cn1 | 750 |
| c1ccc(-c2noc(CN3CCCCC3c3nc(C4CC4)no3)n2)nc1 (stereo not drawn) | 784 |
| Cn1cc(-c2nc(C(=O)Nc3ccc(Cl)cc3)cs2)c2cccnc21 | 1090 |
| Cc1ccc(C(=O)N2CCCC(COc3ccc(C(=O)NC(C)C)cc3)C2)cc1F (stereo not drawn) | 896 |
| O=C(Nc1ccc(F)cc1F)c1ccc2ncsc2c1 | 713 |
| Cc1ccc(-n2c(=O)c3sccc3n(Cc3nc(-c4ccccc4)no3)c2=O)cc1 | 985 |
| COc1ccc(CNC(=O)c2cn3cc(Cl)ccc3n2)cc1OC | 749 |
| O=C(NC1CC1)c1ccc(OCC2CCCN(C(=O)c3ccsc3)C2)cc1 (stereo not drawn) | 737 |
| c1ccc(SCc2nnc3sc(-c4cccnc4)nn23)cc1 | 742 |
| COc1ccc(NC(=O)Nc2cccn3c(C4CCC4)nnc23)c(C)c1 | 787 |
| CNC(=O)c1noc([C@@H]2CC(F)(F)CN2CC2CC2)n1 | 724 |
| CN1c2ccccc2C(=O)NC12CCN(C(=O)Nc1ccccc1F)CC2 | 695 |
| Cc1ccc(C)c(N2CCN(c3ccnc(SCC(=O)NCc4ccccc4)n3)CC2)c1 | 858 |

| Compound | RP-LC retention time [s] |
| --- | --- |
| COc1cccc(CC(=O)Nc2ccc(-c3nc(Cn4cccn4)c(C)o3)cc2)c1 | 848 |
| CN1CCN(CCCNc2ccc(-c3nc(-c4ccc(F)cc4)no3)cn2)CC1 | 626 |
| O=C(NCc1ccco1)c1ccc2c(c1)CCCN2S(=O)(=O)c1ccc(Cl)cc1 | 999 |
| CCc1cc(=O)n(CC(=O)Nc2cc(OC)cc(OC)c2)c(N2CCOCC2)n1 | 738 |
| COc1ccc(CNC(=O)c2nc(N3CCSCC3)c3cnn(C)c3n2)cc1 | 775 |
| Cc1nc(C(=O)Nc2ccc(Cl)c(C)c2)c(C)o1 | 1010 |
| CC1=C(c2ccccc2)S(=O)(=O)N=C1N1CCC(NC(=O)C2CCCO2)CC1 (stereo not drawn) | 702 |
| CCC(=O)N1CCN(c2ccc(=O)n(-c3ccc(C(C)C)cc3)n2)CC1 | 780 |
| CCC1Oc2ccc(S(=O)(=O)N3CCC(C(=O)Nc4ccccc4F)CC3)cc2NC1=O (stereo not drawn) | 812 |
| O=C(NCCc1nc2cccnc2n1C1CCCC1)NCc1ccco1 | 652 |
| Cc1sc(-c2nnc(C3CC3)o2)cc1NC(=O)c1cccc(N(C)C)c1 | 896 |
| Cc1cc(Br)ccc1NC(=O)Cn1cnc(C)c(C)c1=O | 673 |
| CCN1C(=O)C2(CCN(S(=O)(=O)Cc3ccccc3Cl)CC2)c2ccccc21 | 1030 |
| CSc1cccc(NC(=O)NCCc2cn(C)c3ncccc23)c1 | 716 |
| COc1ccc(NC(=O)C2CCN(S(=O)(=O)c3c(C)[nH]c(C)c3C(=O)N3CCCC3)CC2)cc1 | 693 |
| CN1Cc2ccccc2-n2ccnc2C12CCN(C(=O)c1ccc(F)c(F)c1)CC2 | 619 |
| CCn1cnc2ccc(-c3noc(-c4ccc(F)cc4)n3)cc21 | 780 |
| Cc1ccc(Cl)cc1NC(=O)CSc1nc(N2CCCCC2)nc2ccccc12 | 849 |
| Cc1ccc(-n2nc(N3CCCC(C(=O)NCCCc4ccccc4)C3)ccc2=O)cc1Cl (stereo not drawn) | 1010 |
| CN1CCc2nnc(C3CCCN3C(=O)Nc3ccc(Cl)cc3F)n2CC1 (stereo not drawn) | 581 |
| CCCN1C(=O)COc2ccc(-c3noc(/C=C/c4ccccc4)n3)cc21 | 1250 |
| O=C(NCc1ccccn1)C1CCN(c2cnn(Cc3ccccc3)c(=O)c2)CC1 | 615 |
| CC(C)C(=O)NCC(c1ccc(N(C)C)cc1)N1CCN(c2ccc(F)cc2)CC1 (stereo not drawn) | 592 |

Continued, values first:

| RP-LC retention time [s] | Compound |
| --- | --- |
| 868 | COc1ccc(CNC(=O)c2ccc3c(c2)N(C)C(=O)C2CCCCN32)c(OC)c1 (stereo not drawn) |
| 671 | Cn1cc(CCNS(=O)(=O)c2cccc3nsnc23)c2cccnc21 |
| 911 | Cn1c(=O)c(N2CCN(C(=O)c3ccc(Br)cc3)CC2)nc2cccnc21 |
| 745 | Cc1cccc(CNC(=O)C2CCCN(c3nnc(C)c4c(C)n(-c5ccccc5)nc34)C2)c1 (stereo not drawn) |
| 1070 | COc1ccc(-c2cc3c(=O)n(Cc4nc(-c5ccc(OC)cc5)oc4C)ccn3n2)cc1 |
| 1080 | Cc1cc(C(=O)NCc2ccccc2)nc2cc(-c3cccs3)nn12 |
| 895 | CC1=NS(=O)(=O)N(C)C=C1C(=O)OCc1nc(-c2ccccc2F)no1 |
| 609 | O=C(NC1CCCC1)C1(CCO)CCN(Cc2ccccc2)C1 (stereo not drawn) |
| 860 | O=C(CCn1nnc2cc(-c3noc(Cc4ccc(Br)cc4)n3)ccc21)N1CCOCC1 |
| 815 | CCOc1ccc(C(=O)N2CCN(S(=O)(=O)c3cc4c5c(c3)CCC(=O)N5CCC4)CC2)cc1 |
| 580 | CN(C)CCNC(=O)C1CCN(c2cnc(N3CCSCC3)nc2)CC1 |
| 927 | CSc1nc2ccc3nc(NC(=O)c4cnccn4)sc3c2s1 |
| 682 | CCN1CCN(S(=O)(=O)c2cccc(-c3nnc(-c4ccc(C)cc4)o3)c2)CC1 |
| 976 | Cc1cccc(C)c1-n1ccn(Cc2nc(-c3ccc(F)c(Cl)c3)no2)c(=O)c1=O |
| 674 | N#Cc1ccc(-c2nc(-c3ccc4c(c3)nnn4CCC(=O)N3CCOCC3)no2)c(F)c1 |
| 880 | Cc1onc(-c2cccc(Br)c2)c1C(=O)NCCCOC(C)C |
| 1360 | CCn1nccc1-c1cccc(-c2noc(-c3cccc(Cl)c3)n2)c1 |
| 916 | CCc1cccc(C)c1Nc1c(-c2ccc(SC)cc2)nc2ncccn12 |
| 880 | COc1ccc(OC)c(NC(=O)N2CCN(c3ccc(=O)n(-c4ccc(C)c(C)c4)n3)CC2)c1 |
| 719 | O=C1CC(c2cc(F)cc(F)c2)Cc2nc(N3CCN(c4ccc(F)cc4)CC3)ncc21 (stereo not drawn) |
| 1290 | CCOc1nc2ccccc2nc1N1CCCC(C(=O)Nc2c(Cl)cccc2Cl)C1 (stereo not drawn) |

| RP-LC retention time [s] | Compound |
| --- | --- |
| 991 | COc1ccc(C(=O)N2C[C@H](c3nc(-c4ccccc4)no3)[C@@H](C)C2)cc1F |
| 780 | COc1ccc(-c2cn3c(CC(=O)N4CCN(c5ccccc5F)CC4)csc3n2)cc1OC |
| 873 | COc1ccccc1Cc1noc(C2CN(C(=O)c3ccccc3C(F)(F)F)C2)n1 |
| 982 | COc1ccc(C)cc1NC(=O)C(=O)c1ccc[nH]1 |
| 362 | C[C@@H](NCCc1ccc(O)cc1)[C@@H](O)c1ccc(O)cc1 |
| 680 | CCN1C(=O)NC(c2ccccc2Cl)C2=C1CN(C(C(=O)N1CCCC1)C(C)C)C2=O (stereo not drawn) |
| 728 | Cc1cc(C)c(NC(=O)Cn2cnc3nc(N4CCCC(C(=O)NC(C)C)C4)sc3c2=O)c(C)c1 (stereo not drawn) |
| 813 | CC(=O)N(CC(=O)N1CCc2sccc2C1COc1ccc(F)cc1)CC1CCCO1 (stereo not drawn) |
| 970 | O=C(c1csc(N2CCN(c3cccc(Cl)c3)CC2)n1)N1CCOCC1 |
| 875 | CCCN(Cc1cccs1)C(=O)Nc1cc(OC)c(OC)c(OC)c1 |
| 761 | Cc1cccc(NC(=O)NCCn2c(C(F)(F)F)nc3cccnc32)c1 |
| 1170 | O=C(Nc1ccc(-c2nc(-c3ccc(Cl)cc3)no2)cc1)c1ccco1 |
| 1040 | CC1CCN(S(=O)(=O)c2ccc3c(c2)CCCC(=O)N3CC(=O)N(C)C2CCCCC2)CC1 |
| 1100 | CCc1nc(N2CCC(C(=O)NCc3ccc(F)c(Cl)c3)CC2)c2c(C)scc2n1 |
| 610 | COc1ccc(CNC(=O)CN2CCc3[nH]c4c(OC)ccc(Cl)c4c(=O)c3C2)cc1 |
| 837 | Cc1cccc(-n2c(=O)c3c(cc(C)n3C)n(CC(=O)Nc3ccc4c(c3)OCO4)c2=O)c1 |
| 807 | Cc1noc(-c2ccc(OC3CN(S(=O)(=O)c4c(C)nn(C)c4C)C3)cc2)n1 |
| 574 | CC(C)C1c2nccn2CCCN1C(=O)CCn1cccn1 (stereo not drawn) |
| 954 | Cc1cc(C(=O)O)c2c(C)nn(-c3cccc(F)c3)c2n1 |
| 556 | CCOC(=O)CNC(=O)CN(C(=O)N1CCN(C)CC1)S(=O)(=O)c1ccc(C)cc1 |
